Source: ChEMBL document CHEMBL1201861, “Genomics of Drug Sensitity in Cancer screening data, Wellcome Trust Sanger Institute”

How the values were obtained:
Assay in all cases: cells
COR-L105 = type: functional, cell-based, Homo sapiens; details: Homo sapiens, COR-L105;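 also: cell growth inhibition determined with a viability assay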
Description: SANGER: Inhibition of human COR-L105 cell growth in a cell viability assay.

CTV-1 = type: functional, cell-based; details: Homo sapiens;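 also: growth inhibition of the cell line, read out with a cell viability assay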
Description: SANGER: Inhibition of human CTV-1 cell growth in a cell viability assay.

DMS-273 = type: functional, cell-based, Homo sapiens; details: Homo sapiens, DMS-273
Description: SANGER: Inhibition of human DMS-273 cell growth in a cell viability assay.

ES8 = type: functional, cell-based, Homo sapiens; details: Homo sapiens, ES8;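 also: growth inhibition of human ES8 cells, read out with a cell viability assay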
Description: SANGER: Inhibition of human ES8 cell growth in a cell viability assay.

EW-13 = type: functional, cell-based; details: Homo sapiens;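 also: growth inhibition of EW-13 cells, read out with a cell viability assay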
Description: SANGER: Inhibition of human EW-13 cell growth in a cell viability assay.

HC-1 = type: functional, cell-based; details: Homo sapiens;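 also: growth inhibition of HC-1 cells measured by a cell viability assay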
Description: SANGER: Inhibition of human HC-1 cell growth in a cell viability assay.

HCC38 = type: functional, cell-based, Homo sapiens; details: Homo sapiens, HCC38;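 also: cell viability assay on the human HCC38 cell line, with IC50 marking the concentration that inhibits cell growth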
Description: SANGER: Inhibition of human HCC38 cell growth in a cell viability assay.

HCC70 = type: functional, cell-based, Homo sapiens; details: Homo sapiens, HCC70;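 also: cell viability assay measuring how strongly the compound suppresses proliferation of HCC70 cells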
Description: SANGER: Inhibition of human HCC70 cell growth in a cell viability assay.

HH = type: functional, cell-based; details: Homo sapiens
Description: SANGER: Inhibition of human HH cell growth in a cell viability assay.

HO-1-N-1 = type: functional, cell-based, Homo sapiens; details: Homo sapiens, HO-1-N-1;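 also: growth inhibition of human HO-1-N-1 cells, read out with a cell viability assay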
Description: SANGER: Inhibition of human HO-1-N-1 cell growth in a cell viability assay.

HuP-T3 = type: functional, cell-based, Homo sapiens; details: Homo sapiens, HuP-T3;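 also: HuP-T3 cell growth inhibition, read out with a cell viability assay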
Description: SANGER: Inhibition of human HuP-T3 cell growth in a cell viability assay.

IGROV-1 = type: functional, cell-based, Homo sapiens; details: Homo sapiens, IGROV-1;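 also: reduction of IGROV-1 cell growth, read out with a viability assay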
Description: SANGER: Inhibition of human IGROV-1 cell growth in a cell viability assay.

IST-SL1 = type: functional, cell-based, Homo sapiens; details: Homo sapiens, IST-SL1;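 also: growth inhibition of human IST-SL1 cells, read out with a cell viability assay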
Description: SANGER: Inhibition of human IST-SL1 cell growth in a cell viability assay.

KARPAS-45 = type: functional, cell-based; details: Homo sapiens;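 also: inhibition of cell line growth, read out through a viability assay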
Description: SANGER: Inhibition of human KARPAS-45 cell growth in a cell viability assay.

KE-37 = type: functional, cell-based; details: Homo sapiens;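 also: growth inhibition of KE-37 cells, read out with a cell viability assay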
Description: SANGER: Inhibition of human KE-37 cell growth in a cell viability assay.

KGN = type: functional, cell-based, Homo sapiens; details: Homo sapiens, KGN;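 also: growth inhibition of KGN cells, read out with a cell viability assay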
Description: SANGER: Inhibition of human KGN cell growth in a cell viability assay.

KOSC-2 = type: functional, cell-based, Homo sapiens; details: Homo sapiens, KOSC-2;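 also: growth inhibition of KOSC-2 cells, read out by a cell viability assay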
Description: SANGER: Inhibition of human KOSC-2 cell growth in a cell viability assay.

KP-N-YS = type: functional, cell-based; details: Homo sapiens;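 also: cell viability assay measuring inhibition of cell line growth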
Description: SANGER: Inhibition of human KP-N-YS cell growth in a cell viability assay.

KS-1 = type: functional, cell-based, Homo sapiens; details: Homo sapiens, KS-1;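 also: growth inhibition of KS-1 cells, read out with a cell viability assay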
Description: SANGER: Inhibition of human KS-1 cell growth in a cell viability assay.

KU812 cell line = type: functional, cell-based; details: Homo sapiens;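 also: growth inhibition of KU812 cells, read out with a cell viability assay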
Description: SANGER: Inhibition of human KU812 cell growth in a cell viability assay.

LB1047-RCC = type: functional, cell-based, Homo sapiens; details: Homo sapiens, LB1047-RCC;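 also: inhibition of cell growth, determined with a cell viability assay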
Description: SANGER: Inhibition of human LB1047-RCC cell growth in a cell viability assay.

LB2518-MEL = type: functional, cell-based, Homo sapiens; details: Homo sapiens, LB2518-MEL;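 also: growth inhibition of human LB2518-MEL cells, measured with a cell viability assay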
Description: SANGER: Inhibition of human LB2518-MEL cell growth in a cell viability assay.

MC116 = type: functional, cell-based; details: Homo sapiens;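 also: growth inhibition of MC116 cells, read out with a cell viability assay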
Description: SANGER: Inhibition of human MC116 cell growth in a cell viability assay.

MFE-280 = type: functional, cell-based, Homo sapiens; details: Homo sapiens, MFE-280;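 also: growth inhibition of MFE-280 cells, determined with a cell viability readout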
Description: SANGER: Inhibition of human MFE-280 cell growth in a cell viability assay.

ML-2 = type: functional, cell-based; details: Homo sapiens;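 also: growth inhibition of ML-2 cells, measured with a cell viability readout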
Description: SANGER: Inhibition of human ML-2 cell growth in a cell viability assay.

MLMA = type: functional, cell-based, Homo sapiens; details: Homo sapiens, MLMA;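 also: growth inhibition of MLMA cells (human), determined through a cell viability readout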
Description: SANGER: Inhibition of human MLMA cell growth in a cell viability assay.

MOLT-16 = type: functional, cell-based; details: Homo sapiens;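 also: growth inhibition of human MOLT-16 cells, read out with a cell viability assay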
Description: SANGER: Inhibition of human MOLT-16 cell growth in a cell viability assay.

MPP-89 = type: functional, cell-based, Homo sapiens; details: Homo sapiens, MPP-89;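 also: growth inhibition of human MPP-89 cells, read out with a cell viability assay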
Description: SANGER: Inhibition of human MPP-89 cell growth in a cell viability assay.

MZ1-PC = type: functional, cell-based, Homo sapiens; details: Homo sapiens, MZ1-PC;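 also: cell viability assay measuring growth inhibition of human MZ1-PC cells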
Description: SANGER: Inhibition of human MZ1-PC cell growth in a cell viability assay.

MeWo = type: functional, cell-based, Homo sapiens; details: Homo sapiens, MeWo;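 also: growth inhibition of MeWo cells, determined by a cell viability readout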
Description: SANGER: Inhibition of human Mewo cell growth in a cell viability assay.

NCI-H226 = type: functional, cell-based, Homo sapiens; details: Homo sapiens, NCI-H226;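 also: cell viability read-out used to gauge growth inhibition of the cells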
Description: SANGER: Inhibition of human NCI-H226 cell growth in a cell viability assay.

NCI-H292 = type: functional, cell-based, Homo sapiens; details: Homo sapiens, NCI-H292;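 also: growth inhibition of NCI-H292 cells, read out with a cell viability assay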
Description: SANGER: Inhibition of human NCI-H292 cell growth in a cell viability assay.

NCI-H510A = type: functional, cell-based; details: Homo sapiens;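 also: growth inhibition of NCI-H510A cells, read out with a cell viability assay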
Description: SANGER: Inhibition of human NCI-H510A cell growth in a cell viability assay.

NOMO-1 = type: functional, cell-based; details: Homo sapiens;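 also: growth inhibition of human NOMO-1 cells measured by a cell viability assay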
Description: SANGER: Inhibition of human NOMO-1 cell growth in a cell viability assay.

NOS-1 = type: functional, cell-based, Homo sapiens; details: Homo sapiens, NOS-1;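 also: growth inhibition of the human NOS-1 cell line, read out with a cell viability assay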
Description: SANGER: Inhibition of human NOS-1 cell growth in a cell viability assay.

OCUB-M = type: functional, cell-based, Homo sapiens; details: Homo sapiens, OCUB-M;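 also: growth inhibition of the cancer cell line, read out through a cell viability assay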
Description: SANGER: Inhibition of human OCUB-M cell growth in a cell viability assay.

OS-RC-2 = type: functional, cell-based, Homo sapiens; details: Homo sapiens, OS-RC-2;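 also: growth inhibition of human OS-RC-2 cells, measured by a cell viability assay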
Description: SANGER: Inhibition of human OS-RC-2 cell growth in a cell viability assay.

OVCAR-4 = type: functional, cell-based, Homo sapiens; details: Homo sapiens, OVCAR-4;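 also: growth inhibition of human OVCAR-4 cells, measured with a cell viability assay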
Description: SANGER: Inhibition of human OVCAR-4 cell growth in a cell viability assay.

RXF 393 = type: functional, cell-based; details: Homo sapiens;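 also: growth inhibition of human RXF 393 cells, read out with a cell viability assay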
Description: SANGER: Inhibition of human RXF393 cell growth in a cell viability assay.

SF-295 = type: functional, cell-based, Homo sapiens; details: Homo sapiens, SF-295;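 also: growth inhibition of SF-295 cells, read out with a cell viability assay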
Description: SANGER: Inhibition of human SF295 cell growth in a cell viability assay.

SH-4 = type: functional, cell-based, Homo sapiens; details: Homo sapiens, SH-4;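 also: growth inhibition of SH-4 cells, read out with a cell viability assay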
Description: SANGER: Inhibition of human SH-4 cell growth in a cell viability assay.

SKG-IIIa = type: functional, cell-based, Homo sapiens; details: Homo sapiens, SKG-IIIa;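 also: cell growth inhibition, read out with a cell viability assay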
Description: SANGER: Inhibition of human SKG-IIIa cell growth in a cell viability assay.

SNU-449 = type: functional, cell-based, Homo sapiens; details: Homo sapiens, SNU-449
Description: SANGER: Inhibition of human SNU-449 cell growth in a cell viability assay.

SiHa = type: functional, cell-based, Homo sapiens; details: Homo sapiens, SiHa;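 also: Viability-based readout of growth inhibition in SiHa cells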
Description: SANGER: Inhibition of human SiHa cell growth in a cell viability assay.

TCC-SUP = type: functional, cell-based, Homo sapiens; details: Homo sapiens, TCC-SUP;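 also: growth inhibition of TCC-SUP cells, read out with a cell viability assay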
Description: SANGER: Inhibition of human TCCSUP cell growth in a cell viability assay.

CWR22R = type: functional, cell-based, Homo sapiens; details: Homo sapiens, 22Rv1;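 also: growth inhibition of 22Rv1 cells, read out with a cell viability assay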
Description: SANGER: Inhibition of human 22RV1 cell growth in a cell viability assay.

5637 = type: functional, cell-based, Homo sapiens; details: Homo sapiens
Description: SANGER: Inhibition of human 5637 cell growth in a cell viability assay.

8-MG-BA = type: functional, cell-based, Homo sapiens; details: Homo sapiens, 8-MG-BA;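 also: growth inhibition of 8-MG-BA cells, read out with a cell viability assay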
Description: SANGER: Inhibition of human 8-MG-BA cell growth in a cell viability assay.

U-118-MG = type: functional, cell-based, Homo sapiens; details: Homo sapiens, U-118-MG
Description: SANGER: Inhibition of human U-118-MG cell growth in a cell viability assay.

UO-31 = type: functional, cell-based; details: Homo sapiens;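 also: cell viability assay measuring inhibition of cell growth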
Description: SANGER: Inhibition of human U031 cell growth in a cell viability assay.

VA-ES-BJ = type: functional, cell-based, Homo sapiens; details: Homo sapiens, VA-ES-BJ;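 also: growth inhibition of the VA-ES-BJ cell line, read out by a cell viability assay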
Description: SANGER: Inhibition of human VA-ES-BJ cell growth in a cell viability assay.

WM-115 = type: functional, cell-based, Homo sapiens; details: Homo sapiens, WM-115
Description: SANGER: Inhibition of human WM-115 cell growth in a cell viability assay.

CHP-212 = type: functional, cell-based, Homo sapiens; details: Homo sapiens, CHP-212
Description: SANGER: Inhibition of human CHP-212 cell growth in a cell viability assay.

Compound: CC(=O)O[C@@]12CO[C@@H]1C[C@H](O)[C@@]1(C)C(=O)[C@H](O)C3=C(C)[C@@H](OC(=O)[C@H](O)[C@@H](NC(=O)OC(C)(C)C)c4ccccc4)C[C@@](O)([C@@H](OC(=O)c4ccccc4)[C@H]21)C3(C)C [DOCETAXEL]
- IC50 (COR-L105): > 0.01 µM
- IC50 (CTV-1): 0.00337 µM
- IC50 (DMS-273): 0.000674 µM
- IC50 (ES8): 0.00026 µM
- IC50 (EW-13): > 0.01 µM
- IC50 (HC-1): 0.00656 µM
- IC50 (HCC38): 0.006 µM
- IC50 (HCC70): 0.00277 µM
- IC50 (HH): > 0.01 µM
- IC50 (HO-1-N-1): 0.000281 µM
- IC50 (HuP-T3): > 0.01 µM
- IC50 (IGROV-1): > 0.01 µM
- IC50 (IST-SL1): 0.00312 µM
- IC50 (KARPAS-45): 0.00652 µM
- IC50 (KE-37): > 0.01 µM
- IC50 (KGN): 0.00247 µM
- IC50 (KOSC-2): 0.000255 µM
- IC50 (KP-N-YS): > 0.01 µM
- IC50 (KS-1): 0.00144 µM
- IC50 (KU812 cell line): > 0.01 µM
- IC50 (LB1047-RCC): 0.0088 µM
- IC50 (LB2518-MEL): > 0.01 µM
- IC50 (MC116): > 0.01 µM
- IC50 (MFE-280): > 0.01 µM
- IC50 (ML-2): > 0.01 µM
- IC50 (MLMA): 0.00355 µM
- IC50 (MOLT-16): 0.00827 µM
- IC50 (MPP-89): 0.00567 µM
- IC50 (MZ1-PC): 0.00118 µM
- IC50 (MeWo): 0.00505 µM
- IC50 (NCI-H226): 0.00368 µM
- IC50 (NCI-H292): 0.000159 µM
- IC50 (NCI-H510A): 0.000336 µM
- IC50 (NOMO-1): 0.00513 µM
- IC50 (NOS-1): > 0.01 µM
- IC50 (OCUB-M): 0.00438 µM
- IC50 (OS-RC-2): > 0.01 µM
- IC50 (OVCAR-4): 0.00586 µM
- IC50 (RXF 393): 0.00222 µM
- IC50 (SF-295): > 0.01 µM
- IC50 (SH-4): 0.00322 µM
- IC50 (SKG-IIIa): 0.00286 µM
- IC50 (SNU-449): > 0.01 µM
- IC50 (SiHa): 0.0043 µM
- IC50 (TCC-SUP): > 0.01 µM
- IC50 (CWR22R): 0.00315 µM
- IC50 5637: 0.000143 µM
- IC50 (8-MG-BA): 0.000589 µM
- IC50 (U-118-MG): > 0.01 µM
- IC50 (UO-31): 0.00307 µM
- IC50 (VA-ES-BJ): 0.000375 µM
- IC50 (WM-115): 0.00627 µM
- IC50 (CHP-212): 0.00073 µM

Compound: COc1cc([C@@H]2c3cc4c(cc3[C@@H](O[C@@H]3O[C@@H]5CO[C@@H](C)O[C@H]5[C@H](O)[C@H]3O)[C@H]3COC(=O)[C@H]23)OCO4)cc(OC)c1O [ETOPOSIDE]
- IC50 (COR-L105): 9.57 µM
- IC50 (CTV-1): 0.41 µM
- IC50 (DMS-273): 0.573 µM
- IC50 (ES8): 0.142 µM
- IC50 (EW-13): 0.0889 µM
- IC50 (HC-1): 0.54 µM
- IC50 (HCC38): 2.27 µM
- IC50 (HCC70): > 16 µM
- IC50 (HH): 4.44 µM
- IC50 (HO-1-N-1): 2.38 µM
- IC50 (HuP-T3): > 16 µM
- IC50 (IGROV-1): 0.171 µM
- IC50 (IST-SL1): > 16 µM
- IC50 (KARPAS-45): > 16 µM
- IC50 (KE-37): 0.0407 µM
- IC50 (KGN): 0.352 µM
- IC50 (KOSC-2): > 16 µM
- IC50 (KP-N-YS): 4.24 µM
- IC50 (KS-1): 0.334 µM
- IC50 (KU812 cell line): 2.03 µM
- IC50 (LB1047-RCC): 2.14 µM
- IC50 (LB2518-MEL): > 16 µM
- IC50 (MC116): > 16 µM
- IC50 (MFE-280): > 16 µM
- IC50 (ML-2): 0.178 µM
- IC50 (MLMA): 3.38 µM
- IC50 (MOLT-16): 12.5 µM
- IC50 (MPP-89): > 16 µM
- IC50 (MZ1-PC): 0.811 µM
- IC50 (MeWo): 6.79 µM
- IC50 (NCI-H226): 11.2 µM
- IC50 (NCI-H292): 4.71 µM
- IC50 (NCI-H510A): 8.65 µM
- IC50 (NOMO-1): 2.19 µM
- IC50 (NOS-1): 3.58 µM
- IC50 (OCUB-M): 0.0446 µM
- IC50 (OS-RC-2): 11.2 µM
- IC50 (OVCAR-4): > 16 µM
- IC50 (RXF 393): > 16 µM
- IC50 (SF-295; read-out: IC50): 1.66 µM
- IC50 (SH-4): 3.13 µM
- IC50 (SKG-IIIa): > 16 µM
- IC50 (SNU-449): > 16 µM
- IC50 (SiHa): > 16 µM
- IC50 (TCC-SUP): 11.6 µM
- IC50 (CWR22R): 1.53 µM
- IC50 5637: 0.867 µM
- IC50 (8-MG-BA): 0.0469 µM
- IC50 (U-118-MG): > 16 µM
- IC50 (UO-31): 11.3 µM
- IC50 (VA-ES-BJ): 0.415 µM
- IC50 (WM-115): > 16 µM
- IC50 (CHP-212): 1.41 µM
